Laboratory results taken from ChEMBL document CHEMBL5291721, “A preclinical secondary pharmacology resource illuminates target-adverse drug reaction associations of marketed drugs” (Nat Commun, 2023).
Each block holds one compound with its values, some of them ahead of it.

Key:
[1] = target: T1, Retinoic acid receptor gamma (Homo sapiens, UniProt P13631); type: functional, cell-based
T1 sequence (P13631 whole entry): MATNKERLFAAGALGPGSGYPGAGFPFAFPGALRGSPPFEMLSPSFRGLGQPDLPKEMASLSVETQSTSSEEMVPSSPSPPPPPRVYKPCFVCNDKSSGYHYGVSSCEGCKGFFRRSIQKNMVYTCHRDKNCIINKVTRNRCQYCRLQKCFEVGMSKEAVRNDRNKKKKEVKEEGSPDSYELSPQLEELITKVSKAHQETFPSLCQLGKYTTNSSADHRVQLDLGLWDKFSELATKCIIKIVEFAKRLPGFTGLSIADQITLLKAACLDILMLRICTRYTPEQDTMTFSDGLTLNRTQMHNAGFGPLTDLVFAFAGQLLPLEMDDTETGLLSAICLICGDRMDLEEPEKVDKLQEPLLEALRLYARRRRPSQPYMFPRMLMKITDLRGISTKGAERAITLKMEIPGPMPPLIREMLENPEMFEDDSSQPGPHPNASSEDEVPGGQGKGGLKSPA

[2] = target: T2, Type-2 angiotensin II receptor (Homo sapiens, UniProt P50052); type: functional
T2 sequence (P50052 whole entry): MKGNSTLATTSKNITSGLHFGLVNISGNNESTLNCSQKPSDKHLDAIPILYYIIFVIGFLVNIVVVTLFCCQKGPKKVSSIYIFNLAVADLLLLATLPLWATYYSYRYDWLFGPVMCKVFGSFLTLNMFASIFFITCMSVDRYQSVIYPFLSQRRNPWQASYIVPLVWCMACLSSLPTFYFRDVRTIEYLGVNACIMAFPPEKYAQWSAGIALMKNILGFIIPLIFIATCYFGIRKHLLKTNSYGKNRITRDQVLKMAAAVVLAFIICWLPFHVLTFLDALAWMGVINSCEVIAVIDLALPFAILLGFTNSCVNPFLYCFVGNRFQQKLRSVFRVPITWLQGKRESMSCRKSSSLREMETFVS

[3] = target: 5-hydroxytryptamine receptor 2B (Homo sapiens, UniProt P41595)
[4] = target: T3, Muscarinic acetylcholine receptor M1 (Homo sapiens, UniProt P11229); type: functional, cell-based
T3 sequence (P11229 whole entry): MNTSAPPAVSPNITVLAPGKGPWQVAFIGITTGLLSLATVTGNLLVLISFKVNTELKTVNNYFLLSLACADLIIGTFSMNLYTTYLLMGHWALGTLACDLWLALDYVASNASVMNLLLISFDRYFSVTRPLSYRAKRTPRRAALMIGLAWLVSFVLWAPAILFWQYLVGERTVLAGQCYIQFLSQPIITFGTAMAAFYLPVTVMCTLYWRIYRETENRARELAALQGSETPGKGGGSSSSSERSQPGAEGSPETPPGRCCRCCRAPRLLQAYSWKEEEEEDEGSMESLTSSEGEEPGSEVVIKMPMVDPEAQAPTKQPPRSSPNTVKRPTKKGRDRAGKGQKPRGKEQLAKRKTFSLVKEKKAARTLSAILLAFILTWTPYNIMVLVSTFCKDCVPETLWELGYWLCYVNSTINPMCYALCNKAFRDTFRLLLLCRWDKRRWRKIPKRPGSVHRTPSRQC

[5] = target: T3, Muscarinic acetylcholine receptor M1; type: functional, cell-based; remark: listed apart in the source
[6] = target: T4, Prostaglandin G/H synthase 1 (Rattus norvegicus, UniProt Q63921); type: functional
T4 sequence (Q63921 whole entry): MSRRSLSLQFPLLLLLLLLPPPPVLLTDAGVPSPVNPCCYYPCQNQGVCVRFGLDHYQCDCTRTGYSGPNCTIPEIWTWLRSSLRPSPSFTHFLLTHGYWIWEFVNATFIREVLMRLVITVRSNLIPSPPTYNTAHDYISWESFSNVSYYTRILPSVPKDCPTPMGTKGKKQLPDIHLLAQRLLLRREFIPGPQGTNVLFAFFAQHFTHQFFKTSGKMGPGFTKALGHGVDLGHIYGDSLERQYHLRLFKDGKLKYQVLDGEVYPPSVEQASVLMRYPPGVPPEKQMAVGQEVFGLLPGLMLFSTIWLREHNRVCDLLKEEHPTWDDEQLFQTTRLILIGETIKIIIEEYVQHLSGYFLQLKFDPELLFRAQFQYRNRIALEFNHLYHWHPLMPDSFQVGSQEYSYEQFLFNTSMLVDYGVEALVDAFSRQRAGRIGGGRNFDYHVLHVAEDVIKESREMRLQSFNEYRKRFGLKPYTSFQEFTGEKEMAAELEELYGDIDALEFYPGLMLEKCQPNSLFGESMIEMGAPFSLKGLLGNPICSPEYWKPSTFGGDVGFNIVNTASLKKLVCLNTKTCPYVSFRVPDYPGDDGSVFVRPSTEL

[7] = target: T5, Muscarinic acetylcholine receptor M2 (Homo sapiens, UniProt P08172)
T5 sequence (P08172 whole entry): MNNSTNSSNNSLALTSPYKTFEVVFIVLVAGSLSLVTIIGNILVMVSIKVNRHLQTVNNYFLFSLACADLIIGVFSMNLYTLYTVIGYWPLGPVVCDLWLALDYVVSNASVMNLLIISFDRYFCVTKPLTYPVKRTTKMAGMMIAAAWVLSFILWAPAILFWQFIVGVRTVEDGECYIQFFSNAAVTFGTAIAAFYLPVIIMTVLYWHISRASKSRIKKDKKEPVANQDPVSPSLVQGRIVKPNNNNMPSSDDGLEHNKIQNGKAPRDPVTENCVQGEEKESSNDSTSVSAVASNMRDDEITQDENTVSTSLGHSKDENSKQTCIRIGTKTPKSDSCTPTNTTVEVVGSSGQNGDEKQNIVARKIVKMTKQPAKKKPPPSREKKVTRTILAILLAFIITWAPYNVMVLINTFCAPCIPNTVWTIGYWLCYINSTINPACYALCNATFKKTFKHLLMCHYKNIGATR

Histamine H1 receptor [8] = target: T6, Histamine H1 receptor (Homo sapiens, UniProt P35367); type: functional, cell-based
Histamine H1 receptor [9] = target: T6, Histamine H1 receptor; type: functional, cell-based; remark: listed apart in the source
Also: assay procedure not described here.

T6 sequence (P35367 whole entry): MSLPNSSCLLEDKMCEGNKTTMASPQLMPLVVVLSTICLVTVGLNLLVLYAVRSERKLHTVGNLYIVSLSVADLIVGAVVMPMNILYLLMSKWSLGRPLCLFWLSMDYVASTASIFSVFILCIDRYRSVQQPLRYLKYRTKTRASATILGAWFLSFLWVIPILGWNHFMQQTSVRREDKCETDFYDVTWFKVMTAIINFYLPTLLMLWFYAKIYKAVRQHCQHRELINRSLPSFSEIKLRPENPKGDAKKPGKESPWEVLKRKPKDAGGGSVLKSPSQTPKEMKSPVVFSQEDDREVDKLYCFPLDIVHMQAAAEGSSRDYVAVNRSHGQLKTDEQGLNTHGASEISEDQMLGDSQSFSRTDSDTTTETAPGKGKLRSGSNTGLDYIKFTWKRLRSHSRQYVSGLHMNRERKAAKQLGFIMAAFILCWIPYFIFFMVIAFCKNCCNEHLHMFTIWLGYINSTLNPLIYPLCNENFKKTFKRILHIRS
Sequence of 5-hydroxytryptamine receptor 2B (P41595 whole entry): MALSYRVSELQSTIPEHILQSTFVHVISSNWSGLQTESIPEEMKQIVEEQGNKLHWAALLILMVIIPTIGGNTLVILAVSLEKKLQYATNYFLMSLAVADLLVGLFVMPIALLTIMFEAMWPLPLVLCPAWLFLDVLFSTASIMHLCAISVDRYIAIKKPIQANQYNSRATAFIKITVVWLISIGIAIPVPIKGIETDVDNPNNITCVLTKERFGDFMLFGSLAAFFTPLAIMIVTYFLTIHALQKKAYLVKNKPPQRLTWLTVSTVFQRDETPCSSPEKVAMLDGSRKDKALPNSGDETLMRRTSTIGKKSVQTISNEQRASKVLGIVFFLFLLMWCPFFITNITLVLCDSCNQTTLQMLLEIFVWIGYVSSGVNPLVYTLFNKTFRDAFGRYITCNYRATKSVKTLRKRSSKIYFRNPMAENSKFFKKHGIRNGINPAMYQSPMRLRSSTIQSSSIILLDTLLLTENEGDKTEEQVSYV

Structure (SMILES): Cc1c(C(=O)NN2CCCCC2)nn(-c2ccc(Cl)cc2Cl)c1-c1ccc(Cl)cc1 [RIMONABANT]
- AC50 [1]: > 30 µM

- AC50 [2]: > 100 µM
Structure (SMILES): C1CCC(C(CC2CCCCN2)C2CCCCC2)CC1 (stereo unspecified) [PERHEXILINE]

- AC50 [3]: 0.0084 µM
Structure (SMILES): CCCN1C[C@H](CSC)C[C@@H]2c3cccc4[nH]cc(c34)C[C@H]21 [PERGOLIDE]

Structure (SMILES): O=C(O[C@H]1C[C@H]2CC[C@@H](C1)[N+]21CCCC1)C(O)(c1ccccc1)c1ccccc1 [TROSPIUM]
- AC50 [4]: 0.0027 µM
- AC50 [5]: > 30 µM
- AC50 [6]: > 30 µM

Structure (SMILES): O=C(OCC(O)CO)c1ccccc1Nc1ccnc2cc(Cl)ccc12 (stereo unspecified) [GLAFENINE]
- AC50 [7]: > 30 µM

Structure (SMILES): Cc1cn([C@H]2C=C[C@@H](CO)O2)c(=O)[nH]c1=O [STAVUDINE]
- AC50 [7]: > 30 µM

- AC50 (Histamine H1 receptor [8]): > 30 µM
- AC50 (Histamine H1 receptor [9]): > 30 µM
Structure (SMILES): Nc1nc(NC2CC2)c2ncn([C@H]3C=C[C@@H](CO)C3)c2n1 [ABACAVIR]

- AC50 [1]: > 30 µM
Structure (SMILES): CN1C(C(=O)Nc2ccccn2)=C(O)c2sc(Cl)cc2S1(=O)=O [LORNOXICAM]
